Entries after “also recorded” stand apart in the source; their conditions may differ.
Assays:
WT HA/WT NA virus [1] = assay type: cell-based, influenza A
WT HA/WT NA virus [2] = assay type: cell-based, influenza A; remark: listed apart in the source

Substance: oseltamivir
- inhibition of agglutination by oseltamivir (WT HA/WT NA virus [1]): uninhibited at all oseltamivir concentrations tested
- neutralization of infectivity (percent infectivity remaining) (WT HA/WT NA virus [2]): resistant to neutralization by oseltamivir; also recorded: uninhibited at all concentrations tested
